Reference: US8192962B2, “Processes for detecting toxic substances” (Daikin Industries, Ltd., priority 2001, dated 2012)

System: Energy system protein genes
Test: DNA chip mRNA expression in yeast, energy system protein genes (Table 4)
Format: cell-based, Saccharomyces cerevisiae S288C
Protocol: Yeast (Saccharomyces cerevisiae S288C (α SUC2mal mel gap2 CUP1)) were incubated at 25° C. on YPD medium (yeast extract 1%, polypepton 2%, glucose 2%). One of toxic chemical substances was added to the cells at logarithmic growth phase, and the cells were further incubated for two hours. Cells were cultured without any chemical substance in the same condition, and were used as control. Concentrations of the chemical substances were defined to inhibit the growth of the yeast but not lead to death.
After completion of the incubation, the culture was centrifuged to collect the cells. To the cells, sodium acetate buffer (50 mM sodium acetate, 10 mM EDTA, 1% SDS) was added, and the mixture was shaken at 65° C. for five minutes, followed by returning to room temperature, and obtaining the supernatant, of which the procedures were repeated two times. To the supernatant, ½ amount of a solution of phenol/chloroform was added, and the mixture was centrifuged to give a supernatant, which was added with an equal amount of chloroform, and the mixture was centrifuged to give a supernatant. To the supernatant, an equal amount of isopropanol containing 0.3 M sodium acetate was added, and the mixture was allowed to stand at room temperature for 30 minutes, after which the mixture was centrifuged to give a sediment of the whole RNAs. Seventy % ethanol was added to the sediment, and the mixture was again centrifuged to give a sediment, which was then dried and dissolved in water. mRNA was isolated from the whole RNAs as followings. In view of the fact that a poly A chain is attached to the 3′ terminus of mRNA, a polynucleotide having a poly T structure which was immobilized on the surface of latex beads was used to trap the mRNA, and then the mRNA was washed and eluted with spine column (Oligotex-dT30<Super>mRNA Purification Kit, Takara). Reverse transcription of the mRNA was conducted with a reverse transcriptase (Super Script II Reverse Transcriptase; catalogue No. 18064-014, GibcoBRL) using fluorescence-labeled nucleotides to give cDNAs that were introduced with Cy3-dUTP or Cy5-dUTP during the reverse transcription.
The labeled cDNAs were dissolved in TE buffer (10mM Tris-HCl/1 mM EDTA, pH8.0), and the solution was dropped on the DNA chip containing the whole genes of yeast (DNA Chip Research Inc. Japan) so that the cDNAs were hybridized on the DNA chip at 65° C. for over 12 hours. The fluoresces intensity of the DNA chip was read with a scanner, and the ratio relative to the fluorescence intensity resulting from the absence of chemical substance was estimated as the following, which is shown in Tables 1 to 9: […]

Compound: N#Cc1c(Cl)c(Cl)c(Cl)c(C#N)c1Cl [(9), 2,4,5,6-tetrachloro-1,3-benzenedicarbonitrile]
- The level of expressed mRNA in the presence of chemical substance/The level of expressed mRNA in the absence of chemical substance (yeast gene YJL121C, cells incubated two hours with the chemical substance): 0.1
- The level of expressed mRNA in the presence of chemical substance/The level of expressed mRNA in the absence of chemical substance (yeast gene YJL166W, cells incubated two hours with the chemical substance): 1.3
- The level of expressed mRNA in the presence of chemical substance/The level of expressed mRNA in the absence of chemical substance (yeast gene YJL216C, cells incubated two hours with the chemical substance): 1.5
- The level of expressed mRNA in the presence of chemical substance/The level of expressed mRNA in the absence of chemical substance (yeast gene YJR009C): 1.1
- The level of expressed mRNA in the presence of chemical substance/The level of expressed mRNA in the absence of chemical substance (yeast gene YJR048W): 0.5
- The level of expressed mRNA in the presence of chemical substance/The level of expressed mRNA in the absence of chemical substance (yeast gene YJR121W, cells incubated two hours with the chemical substance): 0.8
- The level of expressed mRNA in the presence of chemical substance/The level of expressed mRNA in the absence of chemical substance (yeast gene YJR155W): 38.2
- The level of expressed mRNA in the presence of chemical substance/The level of expressed mRNA in the absence of chemical substance (yeast gene YKL016C, cells incubated two hours with the chemical substance): 1.3
- The level of expressed mRNA in the presence of chemical substance/The level of expressed mRNA in the absence of chemical substance (yeast gene YKL060C, cells incubated two hours with the chemical substance): 0.3
- The level of expressed mRNA in the presence of chemical substance/The level of expressed mRNA in the absence of chemical substance (yeast gene YKL141W, cells incubated two hours with the chemical substance): 0.8
- The level of expressed mRNA in the presence of chemical substance/The level of expressed mRNA in the absence of chemical substance (yeast gene YKL148C, cells incubated two hours with the chemical substance): 1.7
- The level of expressed mRNA in the presence of chemical substance/The level of expressed mRNA in the absence of chemical substance (yeast gene YKL150W): 1.1
- The level of expressed mRNA in the presence of chemical substance/The level of expressed mRNA in the absence of chemical substance (yeast gene YKR009C, cells incubated two hours with the chemical substance): 2.4
- The level of expressed mRNA in the presence of chemical substance/The level of expressed mRNA in the absence of chemical substance (yeast gene YKR058W, cells incubated two hours with the chemical substance, 25° C., YPD medium): 1.3
- The level of expressed mRNA in the presence of chemical substance/The level of expressed mRNA in the absence of chemical substance (yeast gene YKR097W): 1.9
- The level of expressed mRNA in the presence of chemical substance/The level of expressed mRNA in the absence of chemical substance (yeast gene YLL041C, cells incubated two hours with the chemical substance): 0.7
- The level of expressed mRNA in the presence of chemical substance/The level of expressed mRNA in the absence of chemical substance (yeast gene YLR038C, cells incubated two hours with the chemical substance): 0.4
- The level of expressed mRNA in the presence of chemical substance/The level of expressed mRNA in the absence of chemical substance (yeast gene YLR134W, cells incubated two hours with the chemical substance): 0.1
- The level of expressed mRNA in the presence of chemical substance/The level of expressed mRNA in the absence of chemical substance (yeast gene YLR258W, cells incubated two hours with the chemical substance): 0.8
- The level of expressed mRNA in the presence of chemical substance/The level of expressed mRNA in the absence of chemical substance (yeast gene YLR284C, cells incubated two hours with the chemical substance): 0.9
- The level of expressed mRNA in the presence of chemical substance/The level of expressed mRNA in the absence of chemical substance (yeast gene YLR295C, cells incubated two hours with the chemical substance, 25° C., YPD medium): 1.4
- The level of expressed mRNA in the presence of chemical substance/The level of expressed mRNA in the absence of chemical substance (yeast gene YLR304C, cells incubated two hours with the chemical substance): 0.1
- The level of expressed mRNA in the presence of chemical substance/The level of expressed mRNA in the absence of chemical substance (yeast gene YLR345W): 4.5
- The level of expressed mRNA in the presence of chemical substance/The level of expressed mRNA in the absence of chemical substance (yeast gene YLR354C, cells incubated two hours with the chemical substance): 0.4
- The level of expressed mRNA in the presence of chemical substance/The level of expressed mRNA in the absence of chemical substance (yeast gene YLR377C, cells incubated two hours with the chemical substance): 1.8
- The level of expressed mRNA in the presence of chemical substance/The level of expressed mRNA in the absence of chemical substance (yeast gene YLR395C, cells incubated two hours with the chemical substance): 1.0
- The level of expressed mRNA in the presence of chemical substance/The level of expressed mRNA in the absence of chemical substance (yeast gene YML087C): 1.9
- The level of expressed mRNA in the presence of chemical substance/The level of expressed mRNA in the absence of chemical substance (yeast gene YML120C, cells incubated two hours with the chemical substance): 1.3
- The level of expressed mRNA in the presence of chemical substance/The level of expressed mRNA in the absence of chemical substance (yeast gene YML129C, cells incubated two hours with the chemical substance): 1.4
- The level of expressed mRNA in the presence of chemical substance/The level of expressed mRNA in the absence of chemical substance (yeast gene YMR073C, cells incubated two hours with the chemical substance): 1.2
- The level of expressed mRNA in the presence of chemical substance/The level of expressed mRNA in the absence of chemical substance (yeast gene YMR118C): 9.3
- The level of expressed mRNA in the presence of chemical substance/The level of expressed mRNA in the absence of chemical substance (yeast gene YMR205C, cells incubated two hours with the chemical substance): 0.3
- The level of expressed mRNA in the presence of chemical substance/The level of expressed mRNA in the absence of chemical substance (yeast gene YMR261C, cells incubated two hours with the chemical substance): 1.6
- The level of expressed mRNA in the presence of chemical substance/The level of expressed mRNA in the absence of chemical substance (yeast gene YMR267W, cells incubated two hours with the chemical substance, 25° C., YPD medium): 0.4
- The level of expressed mRNA in the presence of chemical substance/The level of expressed mRNA in the absence of chemical substance (yeast gene YMR323W, cells incubated two hours with the chemical substance): 0.5
- The level of expressed mRNA in the presence of chemical substance/The level of expressed mRNA in the absence of chemical substance (yeast gene YNL071W): 1.1
- The level of expressed mRNA in the presence of chemical substance/The level of expressed mRNA in the absence of chemical substance (yeast gene YNL202W, cells incubated two hours with the chemical substance): 1.3
- The level of expressed mRNA in the presence of chemical substance/The level of expressed mRNA in the absence of chemical substance (yeast gene YNL241C): 3.4
- The level of expressed mRNA in the presence of chemical substance/The level of expressed mRNA in the absence of chemical substance (yeast gene YNL331C): 42.6
- The level of expressed mRNA in the presence of chemical substance/The level of expressed mRNA in the absence of chemical substance (yeast gene YOL086C, cells incubated two hours with the chemical substance): 0.1
- The level of expressed mRNA in the presence of chemical substance/The level of expressed mRNA in the absence of chemical substance (yeast gene YOL165C): 46.9
- The level of expressed mRNA in the presence of chemical substance/The level of expressed mRNA in the absence of chemical substance (yeast gene YOR142W, cells incubated two hours with the chemical substance): 1.1
- The level of expressed mRNA in the presence of chemical substance/The level of expressed mRNA in the absence of chemical substance (yeast gene YOR178C, cells incubated two hours with the chemical substance): 0.2
- The level of expressed mRNA in the presence of chemical substance/The level of expressed mRNA in the absence of chemical substance (yeast gene YOR388C, cells incubated two hours with the chemical substance): 0.1
- The level of expressed mRNA in the presence of chemical substance/The level of expressed mRNA in the absence of chemical substance (yeast gene YPL031C, cells incubated two hours with the chemical substance): 5.7
- The level of expressed mRNA in the presence of chemical substance/The level of expressed mRNA in the absence of chemical substance (yeast gene YPL061W, cells incubated two hours with the chemical substance): 1.3
- The level of expressed mRNA in the presence of chemical substance/The level of expressed mRNA in the absence of chemical substance (yeast gene YPL088W): 0.6
- The level of expressed mRNA in the presence of chemical substance/The level of expressed mRNA in the absence of chemical substance (yeast gene YPL171C): 60.0
- The level of expressed mRNA in the presence of chemical substance/The level of expressed mRNA in the absence of chemical substance (yeast gene YPL240C): 3.5
- The level of expressed mRNA in the presence of chemical substance/The level of expressed mRNA in the absence of chemical substance (yeast gene YPL262W, cells incubated two hours with the chemical substance): 1.4
- The level of expressed mRNA in the presence of chemical substance/The level of expressed mRNA in the absence of chemical substance (yeast gene YPL275W, cells incubated two hours with the chemical substance): 0.2
- The level of expressed mRNA in the presence of chemical substance/The level of expressed mRNA in the absence of chemical substance (yeast gene YPR048W, cells incubated two hours with the chemical substance): 4.0
- The level of expressed mRNA in the presence of chemical substance/The level of expressed mRNA in the absence of chemical substance (yeast gene YPR184W, cells incubated two hours with the chemical substance): 1.9
